{"source": "patent US4840785A", "about": "“Mammal intestinal hormone precursor and its use” (priority 1985, dated 1989)", "key": {"[1]": {"system": "pancreas of the anesthetized cat", "test": "secretin bioassay: stimulation of secretion of alkali in the pancreatic juice in the anesthetized cat", "format": "in vivo", "method": "The biological activity was measured by the ability to stimulate the secretion of alkali in the pancreatic juice in the anesthetized cat (Mutt, v. and Soderberg, U. On the assay of secretin. Ark.Kem. 15, 63-68, 1959). The sample was compared to a secretin standard with an established activity of 3500 units per mg. […] Proteolytic fragmentation"}, "[2]": {"system": "pancreas of the anesthetized cat", "conditions": "standard used for comparison; cited from earlier work"}}, "note": "Several values for one entry are separate records, joined by “and”; a condition that tells them apart may be missing. Equal values may be shown once. No end group written: not given here.", "data": [{"substance": "secretin (HSDGTFTSELSRLRDSARLQRLLQGLV-NH2; UniProt P63298 33-59, looked up) [porcine secretin, intestinal hormone peptide composed of 27 amino acid residues, C-terminal valine amidated]", "values": [{"measurement": "ALKALI SECRETED", "setting": "[1]; Cat. 1, dose 47 pmole", "result": "130 μequiv. and 116 μequiv."}, {"measurement": "ALKALI SECRETED per dose", "setting": "[1]; Cat. 1, dose 47 pmole", "result": "2.7 μequiv.pmole and 2.5 μequiv.pmole"}, {"measurement": "ALKALI SECRETED", "setting": "[1]; Cat. 1, dose 94 pmole", "result": "182 μequiv. and 170 μequiv."}, {"measurement": "ALKALI SECRETED per dose", "setting": "[1]; Cat. 1, dose 94 pmole", "result": "1.9 μequiv.pmole and 1.8 μequiv.pmole"}, {"measurement": "ALKALI SECRETED", "setting": "[1]; Cat. 2, dose 47 pmole", "result": 110, "unit": "μequiv."}, {"measurement": "ALKALI SECRETED per dose", "setting": "[1]; Cat. 2, dose 47 pmole", "result": 2.3, "unit": "μequiv.pmole"}, {"measurement": "ALKALI SECRETED", "setting": "[1]; Cat. 2, dose 94 pmole", "result": 150, "unit": "μequiv."}, {"measurement": "ALKALI SECRETED per dose", "setting": "[1]; Cat. 2, dose 94 pmole", "result": 1.6, "unit": "μequiv.pmole"}, {"measurement": "established activity of secretin standard", "setting": "[2]", "result": 3500, "unit": "units per mg"}]}]}
